Assay results from patent US7241732B2, “Compositions and methods involved in bone growth” (University of Rochester, priority 2001, dated 2007).

Key:
ROS 17/2.8 cells = assay: Apoptosis of ROS 17/2.8 cells on exposure to TRAP (morphology, alkaline phosphatase stain); assay type: cell-based; details: 0.1% DMSO, then TRAP 5 ug/mL
Source text: DMSO, at this low concentration, itself won't cause any toxic effect on cells but can scavenge most of reactive oxygen species. […] Therefore, the TRAP-induced cell apoptosis is not due to a reactive oxygen species effect.

isolated osteoblasts = assay: Osteoblast phenotypic markers (alkaline phosphatase, Runx2, OPG, collagen); assay type: cell-based, rat; details: TRAP 10 μg/ml, TGFβ 2 ng/ml; percent of control, FIG. 14
Method: The qualitative pattern of stimulation by TRAP and TGFβ for markers of osteoblast differentiation is similar. […] Alkaline phosphatase (Alk. Phos.) was measured in a direct biochemical assay. Runx2 and osteoprotegerin (OPG) were quantified in an ELISA assay using commercially available antibodies. Collagen was measured by determining the amount of collagenase-digestible protein present in pre-labeled osteoblasts (34). All data are expressed as a percent of the control, untreated cells. All data points are the mean±one SEM. * p 0.05. ** p 0.01.
Isolated osteoblasts were prepared from neo-natal rat calvaria as previously described (Martinez D A, et al., J. Cellular Biochemistry 59: 246-257 (1995)). Alkaline phosphatase assays and standard Western analyses were performed as previously described (Ionescu A M. ET AL., Journal of Biological Chemistry. 276:11639-47 (2001)).
(§1) After incubation, the plates were washed with PBS-Tween.
Osteoblast differentiation at sites of bone remodeling is mediated by a number of regulatory factors. One of the key factors is TGFβ. In most systems, including the typically the disclosed system, TGFβ is known to be a potent enhancer of the osteoblast phenotype.

D14 primary osteoblasts = assay: OPG sandwich ELISA; assay type: cell-based; details: following treatment
Method: OPG is the deccoy receptor for the RNAKL and stop the osteoclastogenesis. RANKL and OPG has been proposed for the regulation of osteoclast differentiation function. Both OPG and RANKL can themselves also be regulated by TGF-β (MacDonald R G, Science 239:1134-7, (1988)). […] This lower the secretion amount of OPG the less the protection afforded from the osteoclast.
as §1

[1] = test system: P3TP-Lux reporter in MG-63 cells; assay: P3TP-Lux Smad 2,3 reporter in osteoblast cell lines; assay type: cell-based, human
Source text: P3TPLux is a Smad 2, 3 sensitive reporter. […] Co-transfection of the cells with a dominant negative TGFβ type II receptor blocks all TRAP and TGFβ signaling. Each bar is the mean of at least four determinations±SEM. * p 0.05 and ** p 0.01 as compared to control. The data for MG-63 cells are shown. The data for the SaOS2 cells are the same (data not shown).
The data with the MG-63 cell is what is shown.

SW408 cells = assay: P3TP-Lux reporter in Smad4 deficient cells; assay type: cell-based
Source text: SW408 cells are deficient in Smad4, a requisite co-factor for Smad2 and 3 signaling. […] However, when the cells are transfected with both Smad4 and TRIP-1, restoration of Smad signaling can occur. All values are the mean±SEM. * p 0.05 and ** p 0.01 as compared to control.

[2] = test system: TGFβ reporter construct (P3TPlux); assay: P3TP lux TGFβ reporter in transfected osteoblasts; assay type: cell-based; details: FIG. 9
Method: Note the difference in scales. N=4-6.
Functionality of TRIP for TGFβ signaling was determined by measuring the activation of a TGFβ promoter/reporter construct, P3TP Lux (see Experimental Design for a complete description of this construct).
Osteoblasts, cultured at 30-40% confluence in 6-well plates, are transfected on day 2 after plating using the transfection reagent Superfect (Qiagen Santa Clarita, Calif.) according to the manufacturer's guidelines. Individual experiments are internally controlled for amount of total plasmid DNA, with equal amounts of p3TP-Lux reporter, control SV40-renilla plasmid for normalization of transfection efficiency, and target construct and/or vector control DNA for all co-transfection experiments. Following transfection, the cells are placed in media containing DMEM, Penicillin/Streptomycin, and 10% NuSerum IV. After 12 hours, they are incubated for 6 hours in serum-free media (containing DMEM, hyaluronidase 4 U/ml, Penicillin/Streptomycin, and supplemented with 10 pM triiodothyronine (Sigma, St. Louis, Mo.), 60 ng/ml insulin, and 1 mM cysteine (Sigma, St. Louis, Mo.)) plus the factor or cytokine of interest. Eighteen hours later, the cells are harvested and assayed for luciferase activity using the Promega dual luciferase assay system. Renilla luciferase values were used to normalize each sample for transfection efficiency.

[3] = molecular target: T1, TGFβRII, HIS-TRIP and Smad 2 (Homo sapiens, UniProt Q13347); assay: GST-TRAP pull-down of receptor complex from transfected 293T cells; assay type: binding; details: exogenous GST-TRAP 12 hours
T1 construct: expressed in transfected cells; host or cells: 293T cells transfected with TGFβRII and His-TRIP-1; Smad 2 endogenous
Source text: 293T cells were transfected with TGFβRII. Some of these cells were then co-transfected with a “His”-tagged TRIP-1 (His-TRIP-1). In lane A, in which both the receptor and TRIP-1 were present, but GST-TRAP was not added, no parts of the complex could be “pulled down” with glutathione coated beads. The same was true if His-TRIP-1 was not transfected into the cells. However, if the receptor, TRIP-1 and GST-TRAP were all present, a protein complex composed of the receptor, TRIP-1 and Smad 2 could be extracted with glutathione coated beads.
GST-TRAP and GST-TRIP fusion proteins, and GST control protein were purified as instructed by the manufacturer (Amersham Pharmacia). Briefly, plasmids containing GST-fusion protein expressing cDNA were transformed into a BL21DE3)pLysS bacteria strain and selected for ampicillin and chloramphenicol resistant colonies. Selected colonies were grown in LB medium at 30° C. until OD600 reached 0.6 to 1. Then 0.1 mM IPTG was added to medium for 3 hours. Bacteria were lysed by B-PER (Pierce) with 1 mM PMSF. Lysed bacteria were spun down and the supernatants were collected. […]
Detection of HIS-TRIP was performed with anti-HIS antibodies and detection of the TGFβRII and Smad 2 were performed with a commercially available antibodies. […] The beads were extensively washed and the proteins interacting with the beads were analyzed with Western analysis.

[4] = test system: rat calvarial osteoblasts after 14 days of culture; assay: Cleaved caspase 3 and cleaved PARP levels; assay type: cell-based; details: day 14 cells, FIGS. 24 and 25
Source text: Biochemical confirmation of the effect of TRAP on osteoblast apoptosis was obtained by assaying levels of caspase-3 and poly ADP-ribose polymerase (PARP) in these cells lines. […] Thus, another indicator of a cells progression through apoptosis is a measurement of its cleaved caspase 3 levels. Similarly, poly ADP-ribose polymerase is a substrate for active caspase 3 and increased levels of cleave PARP are indicative of an active caspase.

T1 sequence (Q13347 whole entry): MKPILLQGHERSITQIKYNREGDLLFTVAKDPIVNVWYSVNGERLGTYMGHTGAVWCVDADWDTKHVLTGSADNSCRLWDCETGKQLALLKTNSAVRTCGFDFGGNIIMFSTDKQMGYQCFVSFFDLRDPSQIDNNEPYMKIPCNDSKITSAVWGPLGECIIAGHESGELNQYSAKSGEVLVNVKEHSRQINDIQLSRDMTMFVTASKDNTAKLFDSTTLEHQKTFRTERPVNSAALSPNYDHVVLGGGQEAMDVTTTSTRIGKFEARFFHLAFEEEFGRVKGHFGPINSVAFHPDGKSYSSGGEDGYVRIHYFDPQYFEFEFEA
T1 sequence (P37173 23-567 partner): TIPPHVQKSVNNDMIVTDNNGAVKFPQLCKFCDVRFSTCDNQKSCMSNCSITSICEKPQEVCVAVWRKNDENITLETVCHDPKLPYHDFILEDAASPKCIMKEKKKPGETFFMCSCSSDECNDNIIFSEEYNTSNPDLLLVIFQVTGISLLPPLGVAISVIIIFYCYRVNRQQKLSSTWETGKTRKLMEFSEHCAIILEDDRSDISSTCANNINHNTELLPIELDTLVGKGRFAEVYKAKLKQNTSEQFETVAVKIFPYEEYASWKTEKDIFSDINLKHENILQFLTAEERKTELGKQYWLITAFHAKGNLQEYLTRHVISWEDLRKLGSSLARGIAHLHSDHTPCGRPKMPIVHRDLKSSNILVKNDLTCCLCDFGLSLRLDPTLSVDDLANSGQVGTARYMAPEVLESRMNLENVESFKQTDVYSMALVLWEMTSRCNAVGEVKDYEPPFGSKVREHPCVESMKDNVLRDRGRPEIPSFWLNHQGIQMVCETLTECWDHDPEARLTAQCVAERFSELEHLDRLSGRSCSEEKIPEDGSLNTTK
T1 sequence (Q15796 2-467 partner limits assumed): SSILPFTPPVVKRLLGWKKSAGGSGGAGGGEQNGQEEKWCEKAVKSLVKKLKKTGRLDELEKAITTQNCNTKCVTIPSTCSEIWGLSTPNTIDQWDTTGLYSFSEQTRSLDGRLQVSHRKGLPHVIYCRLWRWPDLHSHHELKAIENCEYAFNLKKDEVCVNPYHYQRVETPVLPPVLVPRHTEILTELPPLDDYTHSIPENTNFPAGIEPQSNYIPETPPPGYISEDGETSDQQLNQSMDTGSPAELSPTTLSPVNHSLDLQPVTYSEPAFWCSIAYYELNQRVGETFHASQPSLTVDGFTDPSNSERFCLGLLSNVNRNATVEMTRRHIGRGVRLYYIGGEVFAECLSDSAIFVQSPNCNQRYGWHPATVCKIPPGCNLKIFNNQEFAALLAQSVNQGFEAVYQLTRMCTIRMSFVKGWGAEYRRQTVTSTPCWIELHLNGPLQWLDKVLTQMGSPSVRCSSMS

C[S+](C)[O-] [DMSO]
protection from apoptosis induced by TRAP (ROS 17/2.8 cells): did not protect cells from apoptosis induced by TRAP

TGFβ
effect on alkaline phosphatase activity, Runx 2, OPG and collagen protein synthesis (isolated osteoblasts): an increase in alkaline phosphatase activity, and an increase in Runx 2, osteoprotegerin (OPG) and collagen protein synthesis
level of OPG (D14 primary osteoblasts): less Osteoprotegrin (OPG) production
P3TP-Lux activation with co-transfected dominant negative type II TGFβ receptor [1]: block both TGFβ and TRAP activation of the pathway
upregulation of P3TP-Lux reporter gene ([1]; TRAP 10 μg/ml, TGFβ 5 ng/ml, MG-63 shown, SaOS2 the same): strongly upregulate a reporter gene
activation of reporter gene in Smad4 deficient cells (SW408 cells): neither TGFβ nor TRAP could activate the reporter gene
signaling after restoration of Smad4 and TRIP-1 protein (SW408 cells; cells transfected with Smad4 and TRIP-1): restores TGFβ and TRAP signaling
activation of P3TP lux [2]: strongly activate P3TP lux

B1: GST-TRAP: recombinant fusion protein of GST and TRAP, non-glycosyl protein made in bacteria (protein)
chain: ATPALRFVAVGDWGGVPNAPFHTAREMANAKEIARTVQILGADFILSLGDNFYFTGVQDINDKRFQETFEDVFSDRSLRKVPWYVLAGNHDHLGNVSAQIAYSKISKRWNFPSPFYRLHFKIPQTNVSVAIFMLDTVTLCGNSDDFLSQQPERPRDVKLARTQLSWLKKQLAAAREDYVLVAGHYPVWSIAEHGPTHCLVKQLRPLLATYGVTAYLCGHDHNLQYLQDENGVGYVLSGAGNFMDPSKRHQRKVPNGYLRFHYGTEDSLGGFAYVEISSKEMTVTYIEASGKSLFKTRLPRRARP
modifications: left off: a dimerising Fc or GST
notes: recombinant fusion protein of GST and TRAP, non-glycosyl protein made in bacteria
proteins pulled down with glutathione beads [3]: the complex of the TGFβRII, HIS-TRIP and Smad 2 can be extracted and detected
cleaved caspase 3 and cleaved PARP [4]: have the same effect on the cells
